Tested on: soluble collagen and insoluble collagen of abdominal skin
Assay: Oral administration test in rats: L-hydroxyproline in soluble and insoluble collagen of abdominal skin (Experimental Example 2)
Type: in vivo, F344/DuCrlCrlj rats
Conditions: oral 10 mL/kg once a day for 12 days, abdominal skin on 13th day, soluble plus insoluble collagen, mean±standard deviation, 4 rats per group
Protocol: To the rats of the administration groups 7-11 were each administered with compositions 7-11 obtained by dissolving collagen peptide and L-hydroxyproline in purified water to the contents shown in Table 3 at 10 mL/kg. The rats of the control administration group 12 were administered with purified water at 10 mL/kg.
On the 13th day from the start of the administration test, the abdomen was shaved under anesthesia by intraperitoneal administration of pentobarbital, and the abdominal skin was collected. […] The values are shown by mean±standard deviation.

## O=C(O)[C@@H]1C[C@@H](O)CN1 [composition 11, trans-4-hydroxy-L-proline]
  L-hydroxyproline amount/wet weight of skin: 10.66 ± 1.69 mg/g
